Measurements from paper PMC5478727, “A Novel Small Molecule GDNF Receptor RET Agonist, BT13, Promotes Neurite Growth from Sensory Neurons in Vitro and Attenuates Experimental Neuropathy in the Rat” (Frontiers in Pharmacology, 2017).

Assays:
[1] = tested on: COMT (catechol-O-methyl transferase); experiment: CEREP COMT (catechol-O-methyl transferase); assay type: biochemical; settings: BT13 1 μM; Cat. No. 0457; average of duplicate
histamine receptor H2 = histamine receptor H2 (Homo sapiens, UniProt P25021); experiment: CEREP H2 (h) (antagonist radioligand); assay type: binding; settings: BT13 1 μM; Cat. No. 1208; average of duplicate; read-out: Percentage of inhibition/potentiation from control
RET mRNA in DRGs = experiment: qPCR of RET mRNA in DRGs of animals with SNL; assay type: in vivo, rat; settings: SNL rats; BT13-treated vs vehicle-treated
[2] = target: T1, serotonin receptor 5-HT2C (Homo sapiens, UniProt P28335); experiment: CEREP 5-HT2C (h) (antagonist radioligand); assay type: binding; settings: BT13 1 μM, Cat. No. 0137, average of duplicate, read-out: Percentage of inhibition/potentiation from control
T1 construct: purchased CEREP (contract assay) 0137, 1003
T1 sequence (P28335 33-458): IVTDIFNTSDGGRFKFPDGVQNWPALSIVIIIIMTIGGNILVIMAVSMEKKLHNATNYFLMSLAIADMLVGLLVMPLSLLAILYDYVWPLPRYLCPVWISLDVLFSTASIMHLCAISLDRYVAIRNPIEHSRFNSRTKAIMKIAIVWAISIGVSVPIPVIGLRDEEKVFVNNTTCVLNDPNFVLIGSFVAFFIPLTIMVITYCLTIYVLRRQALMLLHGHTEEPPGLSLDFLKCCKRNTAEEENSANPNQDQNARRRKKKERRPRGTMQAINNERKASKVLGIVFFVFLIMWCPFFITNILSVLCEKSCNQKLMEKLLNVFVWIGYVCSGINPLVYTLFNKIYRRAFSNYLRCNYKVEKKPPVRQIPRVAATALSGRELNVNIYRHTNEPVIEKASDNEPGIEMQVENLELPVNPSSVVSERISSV

[3] = target: T2, opioid receptor delta (DOP) (Mus musculus, UniProt P32300); experiment: CEREP Delta (DOP) (agonist effect); assay type: cell-based; settings: BT13 1 μM, Cat. No. 2568, average of duplicate, read-out: Percentage of inhibition/potentiation from control
T2 construct: purchased CEREP (contract assay) 2568

[4] = target: T3, Protein Tyrosine Phosphatase, PTPRC (CD45) (Homo sapiens, UniProt P08575); experiment: CEREP Protein Tyrosine Phosphatase, PTPRC (CD45); assay type: biochemical; settings: BT13 1 μM; Cat. No. 3956; average of duplicate; read-out: Percentage of inhibition/potentiation from control
T3 construct: purchased CEREP (contract screening, standard company protocols) 3956

[5] = target: T4, vasoactive intestinal peptide receptor PAC1 (PACAP) (Homo sapiens, UniProt P41586); experiment: CEREP PAC1 (PACAP) (h) (agonist radioligand); assay type: binding; settings: BT13 1 μM; Cat. No. 1518; average of duplicate; read-out: Percentage of inhibition/potentiation from control
T4 construct: purchased CEREP (contract assay) 1518

[6] = target: T1, serotonin receptor 5-HT2C; experiment: CEREP 5-HT2C (h) (agonist radioligand); assay type: binding; settings: BT13 1 μM, Cat. No. 1003, average of duplicate, read-out: Percentage of inhibition/potentiation from control
GABA receptor GABAB(1b) = GABA receptor GABAB(1b) (Homo sapiens, UniProt Q9UBS5); experiment: CEREP GABAB(1b) (h) (antagonist radioligand); assay type: binding; settings: read-out: Percentage of inhibition/potentiation from control
TrkA = target: T5, TrkA (Rattus norvegicus, UniProt P35739); experiment: Luciferase reporter-gene assay, TrkA reporter cells; assay type: cell-based; settings: TrkA reporter cell line
T5 construct: expressed in transfected cells; host or cells: MG87 murine fibroblasts (MG87TrkA)

[7] = tested on: adult rat lumbar DRG sensory neurons; experiment: Neurite outgrowth from cultured DRG neurons; assay type: cell-based; settings: NGF 10 ng/ml, BT13 100 ng/ml
[8] = target: T6, serotonin receptor 5-HT2A (Homo sapiens, UniProt P28223); experiment: CEREP 5-HT2A (h) (agonist radioligand); assay type: binding; settings: BT13 1 μM; Cat. No. 0471; average of duplicate; read-out: Percentage of inhibition/potentiation from control
T6 construct: purchased CEREP (contract assay) 0471

[9] = target: T7, adrenergic receptor beta 3 (Homo sapiens, UniProt P13945); experiment: CEREP Beta 3 (non-selective; antagonist radioligand); assay type: binding; settings: BT13 1 μM; Cat. No. 3963; average of duplicate; read-out: Percentage of inhibition/potentiation from control
T7 construct: purchased CEREP (contract assay) Cat# 3963

histamine receptor H1 = target: T8, histamine receptor H1 (Homo sapiens, UniProt P35367); experiment: CEREP H1 (h) (antagonist radioligand); assay type: binding; settings: BT13 1 μM; Cat. No. 0870; average of duplicate; read-out: Percentage of inhibition/potentiation from control
T8 construct: purchased CEREP (contract assay) 0870

[10] = CGRP-positive neurons, vs control

T4 sequence (P41586 21-468): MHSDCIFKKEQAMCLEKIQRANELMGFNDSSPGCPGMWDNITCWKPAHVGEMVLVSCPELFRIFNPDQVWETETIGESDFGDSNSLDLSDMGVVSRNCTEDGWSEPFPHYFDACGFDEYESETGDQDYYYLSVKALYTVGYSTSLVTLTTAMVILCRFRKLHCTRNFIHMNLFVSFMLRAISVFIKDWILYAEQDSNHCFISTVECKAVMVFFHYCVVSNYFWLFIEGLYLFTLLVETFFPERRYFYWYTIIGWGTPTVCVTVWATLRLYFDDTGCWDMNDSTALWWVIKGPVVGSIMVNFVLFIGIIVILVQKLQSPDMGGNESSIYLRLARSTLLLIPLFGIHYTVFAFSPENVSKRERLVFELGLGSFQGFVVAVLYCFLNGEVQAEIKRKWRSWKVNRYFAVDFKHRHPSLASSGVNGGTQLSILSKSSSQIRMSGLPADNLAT
T5 sequence (P35739 33-799): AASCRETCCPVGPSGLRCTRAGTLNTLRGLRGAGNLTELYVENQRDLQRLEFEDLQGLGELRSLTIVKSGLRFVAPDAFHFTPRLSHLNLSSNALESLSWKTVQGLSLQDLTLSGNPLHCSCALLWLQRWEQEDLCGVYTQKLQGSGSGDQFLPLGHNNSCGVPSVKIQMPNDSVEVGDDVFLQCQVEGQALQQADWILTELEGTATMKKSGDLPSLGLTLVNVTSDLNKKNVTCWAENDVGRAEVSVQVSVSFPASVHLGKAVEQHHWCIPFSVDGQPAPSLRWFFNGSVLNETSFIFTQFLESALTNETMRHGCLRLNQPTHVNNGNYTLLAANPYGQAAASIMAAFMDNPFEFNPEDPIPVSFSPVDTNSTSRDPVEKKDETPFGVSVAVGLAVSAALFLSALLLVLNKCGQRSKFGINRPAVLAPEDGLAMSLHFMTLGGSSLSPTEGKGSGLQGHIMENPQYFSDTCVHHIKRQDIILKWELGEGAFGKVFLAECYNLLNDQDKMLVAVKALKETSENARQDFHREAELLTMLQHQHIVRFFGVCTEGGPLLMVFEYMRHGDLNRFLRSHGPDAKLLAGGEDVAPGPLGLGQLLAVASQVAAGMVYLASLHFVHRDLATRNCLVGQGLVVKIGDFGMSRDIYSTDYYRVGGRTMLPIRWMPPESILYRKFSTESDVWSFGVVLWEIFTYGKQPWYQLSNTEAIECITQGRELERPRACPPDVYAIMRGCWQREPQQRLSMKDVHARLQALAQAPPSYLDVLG
T8 sequence (P35367 whole entry): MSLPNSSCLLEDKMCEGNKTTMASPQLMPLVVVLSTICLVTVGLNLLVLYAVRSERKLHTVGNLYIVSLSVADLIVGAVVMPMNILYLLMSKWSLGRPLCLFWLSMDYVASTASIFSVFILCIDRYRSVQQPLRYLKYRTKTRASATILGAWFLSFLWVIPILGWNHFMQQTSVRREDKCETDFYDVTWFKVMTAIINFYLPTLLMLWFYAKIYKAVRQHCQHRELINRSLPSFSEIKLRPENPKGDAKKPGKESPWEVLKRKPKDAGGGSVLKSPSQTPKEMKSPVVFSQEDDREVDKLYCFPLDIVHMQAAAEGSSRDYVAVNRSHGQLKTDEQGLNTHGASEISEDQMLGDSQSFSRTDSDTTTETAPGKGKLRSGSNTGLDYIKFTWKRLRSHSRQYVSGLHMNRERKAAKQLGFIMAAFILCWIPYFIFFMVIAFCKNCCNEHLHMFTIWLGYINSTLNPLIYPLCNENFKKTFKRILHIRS
T3 sequence (P08575 26-1306): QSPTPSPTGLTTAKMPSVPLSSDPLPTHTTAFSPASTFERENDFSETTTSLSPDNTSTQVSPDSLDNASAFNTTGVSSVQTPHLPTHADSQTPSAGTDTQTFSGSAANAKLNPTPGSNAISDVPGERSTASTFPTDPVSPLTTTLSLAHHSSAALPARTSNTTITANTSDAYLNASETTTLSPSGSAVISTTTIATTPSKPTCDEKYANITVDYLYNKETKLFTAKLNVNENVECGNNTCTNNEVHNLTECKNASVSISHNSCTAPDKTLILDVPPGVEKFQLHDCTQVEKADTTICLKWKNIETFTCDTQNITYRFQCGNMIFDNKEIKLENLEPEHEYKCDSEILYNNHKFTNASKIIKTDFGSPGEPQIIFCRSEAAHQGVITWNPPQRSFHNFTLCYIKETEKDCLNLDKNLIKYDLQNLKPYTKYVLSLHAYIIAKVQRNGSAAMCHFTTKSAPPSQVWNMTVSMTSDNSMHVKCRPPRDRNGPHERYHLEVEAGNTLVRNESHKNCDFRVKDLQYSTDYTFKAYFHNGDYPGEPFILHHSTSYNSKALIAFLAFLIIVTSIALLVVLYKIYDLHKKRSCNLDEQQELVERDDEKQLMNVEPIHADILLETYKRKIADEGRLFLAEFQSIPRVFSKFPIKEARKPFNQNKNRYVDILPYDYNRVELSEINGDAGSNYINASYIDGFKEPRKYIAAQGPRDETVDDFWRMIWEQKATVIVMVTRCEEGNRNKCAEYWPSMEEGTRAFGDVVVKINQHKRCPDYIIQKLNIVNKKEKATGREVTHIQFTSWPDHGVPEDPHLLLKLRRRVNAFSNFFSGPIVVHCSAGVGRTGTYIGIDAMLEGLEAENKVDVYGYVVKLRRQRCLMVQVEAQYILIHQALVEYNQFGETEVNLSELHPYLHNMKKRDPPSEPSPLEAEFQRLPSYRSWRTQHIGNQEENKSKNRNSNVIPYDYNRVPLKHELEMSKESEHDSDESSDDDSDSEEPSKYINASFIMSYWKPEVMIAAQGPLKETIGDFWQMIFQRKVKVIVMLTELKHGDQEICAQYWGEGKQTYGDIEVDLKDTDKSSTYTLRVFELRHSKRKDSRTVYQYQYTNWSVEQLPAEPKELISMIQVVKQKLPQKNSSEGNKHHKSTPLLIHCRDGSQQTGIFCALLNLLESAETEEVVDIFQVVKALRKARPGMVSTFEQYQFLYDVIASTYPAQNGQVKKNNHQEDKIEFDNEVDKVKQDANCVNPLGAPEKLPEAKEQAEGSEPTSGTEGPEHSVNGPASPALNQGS
T2 sequence (P32300 whole entry): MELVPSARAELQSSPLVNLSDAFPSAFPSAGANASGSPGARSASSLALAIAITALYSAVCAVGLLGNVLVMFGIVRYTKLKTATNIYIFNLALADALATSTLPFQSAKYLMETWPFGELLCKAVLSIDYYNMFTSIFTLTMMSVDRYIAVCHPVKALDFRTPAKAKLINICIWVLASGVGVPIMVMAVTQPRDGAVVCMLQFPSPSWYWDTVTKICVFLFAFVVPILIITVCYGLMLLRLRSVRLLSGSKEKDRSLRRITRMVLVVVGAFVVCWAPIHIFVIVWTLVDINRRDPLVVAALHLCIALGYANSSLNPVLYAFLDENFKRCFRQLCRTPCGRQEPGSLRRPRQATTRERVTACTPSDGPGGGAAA
T7 sequence (P13945 whole entry): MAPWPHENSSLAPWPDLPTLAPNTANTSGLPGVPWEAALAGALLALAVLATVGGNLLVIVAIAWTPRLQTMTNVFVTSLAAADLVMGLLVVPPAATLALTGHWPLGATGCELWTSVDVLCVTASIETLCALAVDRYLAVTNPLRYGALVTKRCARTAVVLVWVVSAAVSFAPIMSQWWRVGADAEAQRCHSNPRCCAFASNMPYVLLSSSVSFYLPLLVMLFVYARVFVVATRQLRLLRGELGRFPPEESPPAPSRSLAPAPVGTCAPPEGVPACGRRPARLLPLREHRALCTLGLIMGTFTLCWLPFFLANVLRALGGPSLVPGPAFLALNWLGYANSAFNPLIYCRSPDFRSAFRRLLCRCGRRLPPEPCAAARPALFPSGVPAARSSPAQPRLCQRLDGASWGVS
T6 sequence (P28223 whole entry): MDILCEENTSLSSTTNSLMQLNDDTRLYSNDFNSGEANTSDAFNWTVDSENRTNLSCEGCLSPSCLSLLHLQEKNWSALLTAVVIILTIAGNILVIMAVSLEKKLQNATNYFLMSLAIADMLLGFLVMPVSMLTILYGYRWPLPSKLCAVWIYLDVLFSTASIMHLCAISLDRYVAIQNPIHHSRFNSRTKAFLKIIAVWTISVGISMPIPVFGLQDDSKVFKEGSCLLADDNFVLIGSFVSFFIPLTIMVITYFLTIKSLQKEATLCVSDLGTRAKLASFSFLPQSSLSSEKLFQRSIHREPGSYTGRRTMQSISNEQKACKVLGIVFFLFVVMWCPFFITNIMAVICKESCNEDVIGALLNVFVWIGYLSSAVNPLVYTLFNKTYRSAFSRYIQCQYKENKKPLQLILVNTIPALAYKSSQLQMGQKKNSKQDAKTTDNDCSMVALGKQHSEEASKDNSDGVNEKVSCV
histamine receptor H2, sequence (P25021 whole entry): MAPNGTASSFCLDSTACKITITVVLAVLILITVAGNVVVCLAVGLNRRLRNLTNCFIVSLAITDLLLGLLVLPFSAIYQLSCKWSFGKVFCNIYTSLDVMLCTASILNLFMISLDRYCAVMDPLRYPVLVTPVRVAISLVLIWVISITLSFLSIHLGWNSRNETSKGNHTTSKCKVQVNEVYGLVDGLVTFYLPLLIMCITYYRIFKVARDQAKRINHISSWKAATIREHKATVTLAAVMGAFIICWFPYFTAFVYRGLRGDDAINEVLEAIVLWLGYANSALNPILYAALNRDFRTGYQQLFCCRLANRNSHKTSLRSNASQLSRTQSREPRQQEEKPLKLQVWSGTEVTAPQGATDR

For `CCN(CC)S(=O)(=O)c1ccc(OC)c(N2CCN(C(=O)c3ccc(F)cc3C(F)(F)F)CC2)c1` [BT13], the “Percentage of inhibition/potentiation from control” value [1] was −2%, the inhibition at 1 µM (histamine receptor H2) was 9% and the “mRNA level of RET in DRGs” value (RET mRNA in DRGs) was “no difference”. For the same molecule, the inhibition at 1 µM [2] was 11%, the inhibition at 1 µM [3] was -5.2% and the inhibition at 1 µM [4] was -3%. The inhibition at 1 µM [5] was 14%, the inhibition at 1 µM [6] was 6% and the inhibition at 1 µM (GABA receptor GABAB(1b)) was -2%. For the same molecule, the “activation of luciferase reporter” value (TrkA) was “did not activate luciferase”, the “neurite initiation or extension” value ([7]; CGRP-negative neurons, ARTN 30 ng/ml) was “no effect” and the neurite initiation ([7]; CGRP-positive neurons, ARTN 30 ng/ml, overnight) was “no effect”. For the same molecule, the “neurite elongation, branch points, mean difference” value [7, 10] was 22 ± 5, the “neurite elongation, maximum length, mean difference” value [7, 10] was 91 ± 13 μm and the “neurite elongation, total length, mean difference” value [7, 10] was 797 ± 207 μm. For the same molecule, the “proportion of DRG neurons that expressed CGRP in culture” value ([7]; ARTN 30 ng/ml) was “did not alter”, the inhibition at 1 µM [8] was -11% and the inhibition at 1 µM [9] was -5%. The “Cytotoxicity to human hepatoma cells (HepG2; LD50)” value (HepG2 cells) was 90.4 ± 8.5 µM and the inhibition at 1 µM (histamine receptor H1) was 5%.
